The results in this text go back to ChEMBL document CHEMBL5108060, “Discovery, Characterization, and Structure-Based Optimization of Small-Molecule In Vitro and In Vivo Probes for Human DNA Polymerase Theta” (J Med Chem, 2022).

Data set [1] is described as follows: Metabolic stability in human liver microsomes assessed as intrinsic clearance. In kind it is ADME, Microsome. As to conditions: read-out: CLH. (In general: Liver microsomes are vesicles of endoplasmic reticulum, rich in cytochrome P450 enzymes.)
Data set [2] is described as follows: Metabolic stability in rat liver microsomes assessed as intrinsic clearance. The class given is ADME, Microsome. As to conditions: read-out: CLH.
Data set [3] in a line: Metabolic stability in mouse liver microsomes assessed as intrinsic clearance. Particulars: read-out: CLH. The class given is ADME, Microsome.
Data set [4] can be described thus: Inhibition of microhomology-mediated end joining in HEK293 cells. The class given is functional, cell-based, Homo sapiens.
Data set [5] relates to DLD-1. The experiment in a line: Antiproliferative activity against human DLD-1 cells. In kind it is functional, cell-based.
Data set [6] deals with DLD-1. The experiment in a line: Antiproliferative activity against human BRCA-2 deficient DLD-1 cells. The class given is functional, cell-based.
Data set [7] has as its target T1, DNA polymerase theta (Homo sapiens, UniProt O75417). The experiment in a line: Inhibition of recombinant human full length DNA polymerase theta using DNA substrate measured after 1 hrs in presence of dNTPs by plate reader assay.
Data set [8] deals with T1, DNA polymerase theta. The experiment in a line: Displacement of tracer from recombinant Tb-labeled DNA polymerase theta (unknown origin) assessed as end point Kd using DNA as substrate preincubated for 30 mins followed by compound addition for 2 hrs by HTRF assay. Background: TR-FRET usually uses a lanthanide donor and a delayed reading to cut background.
A short description of data set [9]: Lipophilicity, logD of compound. The class given is physicochemical. Particulars: octanol/water.

Molecules are shown by their SMILES.

T1 sequence (O75417 whole entry): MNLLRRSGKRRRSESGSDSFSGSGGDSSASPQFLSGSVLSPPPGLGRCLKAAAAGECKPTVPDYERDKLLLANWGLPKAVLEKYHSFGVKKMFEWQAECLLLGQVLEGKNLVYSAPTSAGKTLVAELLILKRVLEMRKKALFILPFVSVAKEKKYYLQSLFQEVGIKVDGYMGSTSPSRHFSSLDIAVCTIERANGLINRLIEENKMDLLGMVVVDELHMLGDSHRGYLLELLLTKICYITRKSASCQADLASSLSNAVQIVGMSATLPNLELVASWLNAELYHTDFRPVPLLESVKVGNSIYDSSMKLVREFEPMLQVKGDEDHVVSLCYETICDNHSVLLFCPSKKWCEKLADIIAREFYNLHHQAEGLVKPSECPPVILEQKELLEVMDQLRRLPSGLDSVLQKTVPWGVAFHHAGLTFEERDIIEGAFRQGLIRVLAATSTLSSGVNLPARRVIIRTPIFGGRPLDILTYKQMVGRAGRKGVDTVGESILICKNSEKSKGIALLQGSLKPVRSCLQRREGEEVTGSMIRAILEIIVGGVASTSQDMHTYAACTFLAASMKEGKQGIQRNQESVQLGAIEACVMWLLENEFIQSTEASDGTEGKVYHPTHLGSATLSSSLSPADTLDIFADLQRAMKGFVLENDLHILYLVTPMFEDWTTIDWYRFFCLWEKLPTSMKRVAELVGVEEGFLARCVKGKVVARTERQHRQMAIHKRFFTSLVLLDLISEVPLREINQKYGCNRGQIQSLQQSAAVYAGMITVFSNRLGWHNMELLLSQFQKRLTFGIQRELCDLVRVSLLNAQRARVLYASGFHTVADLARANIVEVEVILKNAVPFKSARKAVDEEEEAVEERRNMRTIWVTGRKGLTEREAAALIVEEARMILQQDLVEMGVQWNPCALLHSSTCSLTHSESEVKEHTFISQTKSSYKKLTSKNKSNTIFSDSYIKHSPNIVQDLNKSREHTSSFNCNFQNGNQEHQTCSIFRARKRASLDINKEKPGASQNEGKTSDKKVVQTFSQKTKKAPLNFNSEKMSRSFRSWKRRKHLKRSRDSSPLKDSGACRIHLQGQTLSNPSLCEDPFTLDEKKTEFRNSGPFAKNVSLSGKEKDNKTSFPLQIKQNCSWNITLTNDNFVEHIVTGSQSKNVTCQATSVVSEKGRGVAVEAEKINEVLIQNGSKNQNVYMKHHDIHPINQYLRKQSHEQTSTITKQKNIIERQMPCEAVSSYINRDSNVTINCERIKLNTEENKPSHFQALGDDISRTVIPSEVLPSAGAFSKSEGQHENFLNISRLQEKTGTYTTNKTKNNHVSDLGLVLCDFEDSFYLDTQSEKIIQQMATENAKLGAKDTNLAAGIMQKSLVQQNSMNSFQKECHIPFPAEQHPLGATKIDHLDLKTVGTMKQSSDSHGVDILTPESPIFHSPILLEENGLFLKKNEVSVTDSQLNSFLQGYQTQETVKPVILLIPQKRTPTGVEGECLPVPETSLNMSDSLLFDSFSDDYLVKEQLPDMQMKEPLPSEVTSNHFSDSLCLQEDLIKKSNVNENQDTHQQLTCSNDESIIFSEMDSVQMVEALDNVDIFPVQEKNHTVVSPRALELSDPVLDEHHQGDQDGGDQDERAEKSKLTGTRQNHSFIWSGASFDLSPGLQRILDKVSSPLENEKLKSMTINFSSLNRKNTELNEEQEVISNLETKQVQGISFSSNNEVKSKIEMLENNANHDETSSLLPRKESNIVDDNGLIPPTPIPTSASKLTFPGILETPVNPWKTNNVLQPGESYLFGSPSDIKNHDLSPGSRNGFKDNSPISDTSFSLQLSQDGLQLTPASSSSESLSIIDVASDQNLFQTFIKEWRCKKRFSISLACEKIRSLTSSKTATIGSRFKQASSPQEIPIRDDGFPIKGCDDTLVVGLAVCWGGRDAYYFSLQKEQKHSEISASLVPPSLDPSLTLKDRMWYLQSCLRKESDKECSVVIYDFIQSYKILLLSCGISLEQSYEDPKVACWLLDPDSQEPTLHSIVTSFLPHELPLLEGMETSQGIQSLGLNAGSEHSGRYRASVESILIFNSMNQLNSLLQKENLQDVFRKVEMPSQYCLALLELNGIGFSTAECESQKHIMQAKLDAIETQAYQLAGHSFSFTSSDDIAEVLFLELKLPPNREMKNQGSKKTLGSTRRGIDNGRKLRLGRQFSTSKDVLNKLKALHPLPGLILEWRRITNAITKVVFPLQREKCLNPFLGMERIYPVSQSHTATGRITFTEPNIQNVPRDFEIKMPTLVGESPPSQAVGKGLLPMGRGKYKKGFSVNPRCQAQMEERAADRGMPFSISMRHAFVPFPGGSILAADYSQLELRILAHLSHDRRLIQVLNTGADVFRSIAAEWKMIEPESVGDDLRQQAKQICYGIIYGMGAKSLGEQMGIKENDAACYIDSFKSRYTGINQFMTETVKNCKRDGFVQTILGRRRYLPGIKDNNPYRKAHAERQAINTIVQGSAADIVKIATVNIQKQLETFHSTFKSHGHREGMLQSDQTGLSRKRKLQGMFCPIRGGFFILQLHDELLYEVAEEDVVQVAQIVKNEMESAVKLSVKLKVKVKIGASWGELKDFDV

In the case of `CCN(C(=O)[C@@H]1[C@H](O)[C@H](O)C(=O)N1c1cc(C(F)(F)F)cc(C)n1)c1ccc(F)c(Cl)c1`, the results for the microsomal CLint in [1], in data set [2] and in data set [3] were less than 10 µL/min/mg, 30 µL/min/mg and 20 µL/min/mg, respectively. Further, the EC50 is 0.362 µM in data set [4], greater than 12 µM in the data set on DLD-1 [5] and 6.9 µM with DLD-1 [6].

Consider `Cc1cc(C(F)(F)F)cc(N2C(=O)OC[C@H]2C(=O)N(C)c2ccc(F)c(C)c2F)n1`, for which, at DNA polymerase theta [7], the IC50 is 0.0041 µM. For the same compound, the microsomal CLint in data set [3] was found to be 818 µL/min/mg.

Take `CCN(C(=O)COc1nc(C)cc(C(F)(F)F)c1C#N)c1cccc(C)c1`: at DNA polymerase theta [7], the 50% inhibitory concentration (IC50) came to 0.5 µM. The Kd at DNA polymerase theta [8] is 0.061 µM. The half-maximal effective concentration (EC50) in [4] was 0.68 µM; with DLD-1 [5], greater than 12 µM; in the data set with DLD-1 [6], greater than 12 µM.

For the compound `CCN(C(=O)[C@H](C)Nc1nc(C)cc(C(C)C)c1C#N)c1cccc(C)c1`, the IC50 on DNA polymerase theta [7] came to 0.049 µM.

`CCN(C(=O)[C@@H](C)Nc1nc(C)cc(C(F)(F)F)c1C#N)c1cccc(C)c1`: the IC50 at DNA polymerase theta [7] was determined as 5.1 µM.

Turning to `Cc1cc(C(F)(F)F)c(C#N)c(N2C[C@@H](O)C[C@H]2C(=O)N(C)c2ccccc2)n1`, the Kd at DNA polymerase theta [8] came out at 0.11 µM. In addition, the EC50 in [4] is 0.4 µM; with DLD-1 [5], greater than 12 µM; with DLD-1 [6] it was 8 µM.

Consider `CCN(C(=O)COc1cc(C)cc(C)n1)c1cccc(C)c1`, for which the IC50 on DNA polymerase theta [7] came to 4.2 µM.

With `CCN(C(=O)[C@@H]1COC(=O)N1c1cc(C(F)(F)F)cc(C)n1)c1ccc(F)c(Cl)c1`, the microsomal CLint in data set [3] was found to be 260 µL/min/mg. The logD in [9] came out at 4.

As to `Cc1cccc(N(C)C(=O)[C@@H]2C[C@H](O)CN2c2nccc(C(F)(F)F)c2C#N)c1`, the EC50 in data set [4] was 1.03 µM; in the data set on DLD-1 [5], greater than 12 µM; in the data set on DLD-1 [6], 11.5 µM.

Take `CCN(C(=O)[C@@H]1C[C@H](O)C(=O)N1c1cc(C(F)(F)F)cc(C)n1)c1ccc(F)c(Cl)c1`: the microsomal CLint in data set [3] stood at 181 µL/min/mg.

Turning to `Cc1cccc(N(C)C(=O)[C@@H]2C[C@@H](O)CN2c2nc(C)cc(C(F)(F)F)c2C#N)c1`, the EC50 in data set [4] was 0.315 µM; in the data set with DLD-1 [5], greater than 12 µM; in the data set with DLD-1 [6], 6 µM.

Turning to `CCN(C(=O)[C@@H]1COCCN1c1nc(C)cc(C(F)(F)F)c1C#N)c1cccc(C)c1`, the IC50 at DNA polymerase theta [7] worked out at 2.7 µM.

On to `Cc1cc(C(F)(F)F)cc(N2C(=O)OC[C@H]2C(=O)N(C)c2cccc(Cl)c2F)n1`, for which the microsomal CLint in data set [3] is 165 µL/min/mg.

For `CCN(C(=O)COc1nc(C)c(Br)c(C(F)(F)F)c1C#N)c1cccc(C)c1`, the IC50 on DNA polymerase theta [7] is 0.4 µM.

On to `Cc1cc(C(F)(F)F)cc(N2C(=O)OC[C@H]2C(=O)N(c2ccc(F)c(Cl)c2)C(C)C)n1`, for which the microsomal CLint in data set [3] was found to be 48 µL/min/mg. In addition, the logD in data set [9] came to 4.4.

For the compound `CCN(C(=O)COc1nc(C)c(Cl)c(C)c1C#N)c1cccc(C)c1`, the IC50 at DNA polymerase theta [7] came out at 0.63 µM.

Turning to `CCN(C(=O)[C@H](C)Nc1nc(C)cc(C(F)(F)F)c1C#N)c1cccc(C)c1`, the IC50 at DNA polymerase theta [7] worked out at 0.029 µM.

Consider `CCN(C(=O)[C@H](CO)Nc1nc(C)cc(C(F)(F)F)c1C#N)c1cccc(C)c1`, for which the IC50 at DNA polymerase theta [7] worked out at 0.079 µM. Also, in data set [9], the logD was 4. Besides, the Kd on DNA polymerase theta [8] was found to be 0.035 µM. Besides, the EC50 in data set [4] was 0.255 µM; in the data set on DLD-1 [5], greater than 12 µM; in the data set with DLD-1 [6] it was 11 µM.

As to `Cc1cc(C(F)(F)F)cc(N2C(=O)OC[C@H]2C(=O)N(C)c2ccc(F)c(Cl)c2)n1`, the half-maximal inhibitory concentration (IC50) at DNA polymerase theta [7] stood at 0.015 µM. The microsomal CLint in [3] is 138 µL/min/mg.

In the case of `CCN(C(=O)COc1cc(C(F)(F)F)cc(C)n1)c1cccc(C)c1`, the IC50 at DNA polymerase theta [7] turned out to be 0.53 µM.

Take `Cc1cc(C(F)(F)F)cc(N2C(=O)C[C@@H](O)[C@H]2C(=O)N(C)c2ccc(F)c(Cl)c2)n1`: the IC50 on DNA polymerase theta [7] is 0.0059 µM. Moreover, the microsomal CLint in data set [3] was found to be 260 µL/min/mg. For the same compound, the EC50 in [4] was 0.255 µM; in the data set on DLD-1 [5], greater than 12 µM; in the data set on DLD-1 [6], 2 µM.

What is called EC50 is the concentration at which the effect is half-maximal. As usually defined, the IC50 is the concentration needed to halve the response being measured. What is called Kd is the constant that tells how readily two partners part at equilibrium. In general, logD refers to lipophilicity at a set pH, counting ionised and neutral species. Low values mean lower lipophilicity, high ones higher lipophilicity.
